Values quoted from earlier work in US20140230256A1, “HAND HELD DEVICE” (The Gillette Company, priority 2013, published 2014).

Details: organism not stated

## CCCCCCCCn1sc(Cl)c(Cl)c1=O [4,5-dichloro-2-n-octyl-4-isothiazolin-3-one]
  MIC: about 50 ppm
